Experimental data reported in patent US20250017888A1, “COMPOUNDS FOR TREATING DISEASES ASSOCIATED WITH HYALURONAN OVERPRODUCTION” (THE ROYAL VETERINARY COLLEGE, priority 2021, published 2025).
Entries after “also recorded” stand apart in the source; their conditions may differ.

How the values were obtained:
Assay type in all cases: in vivo, mouse
[1] = tested on: Str/ort mice; assay: Health evaluation of treated Str/ort mice; settings: 50 mg/kg intraperitoneally, 18 weeks, vs vehicle
Method: (§1) At 10-13 weeks of age, 21 male Str/ort mice (n=7/group) were assigned randomly to vehicle, hylin-betaine and xantho-betaine groups and were treated intraperitoneally 18 weeks with either vehicle (5% DMSO in 95% peanut oil), 50 mg/kg compound of Example 1 (“hylin-betaine”) in 5% DMSO and 95% peanut oil or 50 mg/kg compound of Example 2 (“xantho-betaine”) in 5% DMSO and 95% peanut oil.
To assess the health status after hylin-betaine and xantho-betaine treatment, mice were monitored for their health status. The monitoring criteria were body surface temperature, body weight, gait, coat condition, skin tenting for dehydration, hunching, activity, breathing rate and general body condition. Mice were scored blind for each one of these criteria from 1-5 except for body weight and temperature.

[2] = tested on: Str/ort mice; assay: Gait analysis (treadmill, Digigait) in Str/ort mice
Method: as §1
Gait was monitored using a treadmill-based video system (DigigaitTM system) in three treatment groups of mice at three time point, week 1, week 9 and week 18 of treatment. The number of mice was 7, 7 and 5 in groups 1, 2 and 3, respectively.
[…] gait descriptors were used for the analyses. Thirty-four descriptors were obtained directly from the software of the system in the 4 limbs (LF: left front; RF: right front; LR: left rear; RR: right rear). All the others (143) were calculated indexes from gait measurements including swing, stance, brake, propel and stride times, stride length, frequency and coefficient of variation, paw area and paw angle and the variability of those two traits, the coefficient of variation of swing duration mid line distance, and minimum and maximum dAdT. The ratios of times were calculated in the 4 limbs: Brake, Propel, and Swing times relative to Stance and Stride times, Stance/Swing and Stance/Stride. In addition, the following additional indexes were considered:
In order to investigate whether there were differences among groups for each descriptor at the three experimental dates, an ANOVA was performed using data corresponding to each descriptor and date. Bonferroni correction was applied to counteract the problem of multiple comparisons.
A t-test analysis was also performed comparing only two groups at a time. In order to assess whether differences between both groups could be due to differences in gait change regarding the initial condition (at 2014/12/23), two sets of analyses were performed for data at 2015/02/18 and 2015/04/14, respectively by using Logistic Regression Analysis. The model included two independent variables: the initial value for each descriptor and the difference between the corresponding value at 2015/02/18 (or 2015/04/14) and the initial value. Bonferroni correction was also applied.

[3] = tested on: Str/ort mice; assay: Micro-CT of tibial trabecular and cortical bone in Str/ort mice
Method: At 10-13 weeks of age, 21 male Str/ort mice (n=7/group) were assigned randomly to vehicle, hylin-betaine and xantho-betaine groups and were treated intraperitoneally 18 weeks with either vehicle (5% DMSO in 95% peanut oil), 50 mg/kg compound of Example 1 (“hylin-betaine”) in 5% DMSO and 95% peanut oil or 50 mg/kg compound of Example 2 (“xantho-betaine”) in 5% DMSO and 95% peanut oil. Micro-CT scanning and analysis were performed as described previously. Briefly, tibiae from vehicle, hylin-betaine and xantho-betaine treated groups were scanned using the Skyscan 1172 (Skyscan, Kontich, Belgium), with x-ray tube operated at 50 kV and 200 Micro-A, 1600 ms exposure time with a 0.5 mm aluminium filter and a voxel size of micro-m 5. The scanning time for each sample was approximately 2 hours. The slices were then reconstructed using NRecon 1.6.9.4 (Skyscan, Kontich, Belgium). 2D/3D analyses were performed using CTAn 1.15.4.0+ version software (Skyscan, Kontich, Belgium). Additionally, 3D visualization and production of colour-coded images of trabecular, cortical and skull bones were conducted using Avizo 9.0.0 software (FEI, Oregon USA). • a. Trabecular analysis: prior to analysis, Micro-CT images were re-oriented in DataViewer 1.5.0 (Skyscan, Kontich, Belgium), such that the cross-section within the transverse plane was perpendicular to the long axis of the bone. Tibial length was measured in CTAn 1.15.4.0+ software using a straight line measuring tool and the appearance of the trabecular ‘bridge’ connecting the two primary spongiosa bone ‘islands’ was set as reference point for analysis of the metaphyseal trabecular bone adjacent to the epiphyseal growth plate. 5% of the total bone length from this point (towards the diaphysis) was utilised for trabecular analysis of the proximal tibia. The trabecular region of interest was drawn freehand using the selection tool of CTAn, a few voxels away from the endocortical surfaces in order to avoid inclusion of remnants of primary spongiosa associated with cortical bone. The selected trabecular regions of interests were analysed using CTAn BatMan software (Skyscan, Kontich, Belgium) and morphometric parameters were recorded. • b. Whole bone cortical analysis: Whole bone analysis was performed on datasets derived from CT scans using BoneJ (version 1.4.0), an ImageJ plugin. Following segmentation, alignment and removal of fibula from the dataset, a minimum bone threshold was selected using a histogram based method in ImageJ which utilises all pixels in a stack to construct a histogram and was further confirmed using ImageJ “threshold function”. The threshold ranged between 22000-22100 and was applied to all datasets to separate higher density bone from soft tissues and air. This threshold was used in “Slice Geometry” function within BoneJ to calculate bone cross sectional area (CSA), second moment of area around the minor axis (Imin), second moment of area around the major axis (Imax), mean thickness determined by local thickness in two dimensions (Ct.Th), ellipticity and resistance to torsion (J). The most proximal (15%) and the most distal portions (25%) of tibial length were excluded from analysis, as these regions include trabecular bone.

[4] = tested on: Str/ort mice; assay: Histology and grading of articular cartilage lesions in Str/ort mice
Method: At 10-13 weeks of age, 21 male Str/ort mice (n=7/group) were assigned randomly to vehicle, hylin-betaine and xantho-betaine groups and were treated intraperitoneally 18 weeks with either vehicle (5% DMSO in 95% peanut oil), 50 mg/kg compound of Example 1 (“hylin-betaine”) in 5% DMSO and 95% peanut oil or 50 mg/kg compound of Example 2 (“xantho-betaine”) in 5% DMSO and 95% peanut oil. Dissected right knees were fixed in neutral buffered formalin, decalcified (Immunocal, Quartett, Berlin), wax-embedded and 6 μm coronal sections cut. Multiple sections (five/slide) from 120 μm intervals across the whole joint were stained with Tollidine blue (0.1% in 0.1 M acetate buffer, pH 5.6) and AC lesion severity graded. Sections from right vehicle, hylin-betaine and xantho-betaine treated Str/ort joints were stained with Safranin O. Sections were dewaxed, and AC lesion severity was scored in Str/ort mice by the methods of Chambers et al., (Chambers et al Expression of collagen and aggrecan genes in normal and osteoarthritic murine knee joints. Osteoarthritis and cartilage/OARS, Osteoarthritis Research Society. 2002; 10(1):51-61) consistent with an internationally-recognized system. Briefly, grade 0: normal; grade 1: rough surface or superficial zone lesions; grade 2: lesion down to the intermediate zone; grade 3: lesions down to tidemark or loss of AC; grades 4 and 5: AC loss across between 20% and 50% or 50-80% of condylar surface; grade 6: loss with subchondral bone exposure. Multiple slides (˜10), each containing five 6 μm sections sampled at 120 μm intervals spanning each entire joint were graded. Grading in each joint compartment (lateral/medial, tibia/femur) allowed for a maximum (most severe) grade to be assigned in each section, and used to produce an overall ‘average’ maximum grade in each group of mice, for the entire joint and for each compartment. In addition, a mean score was produced for each joint and for each compartment and these similarly used to produce an overall ‘average’ mean grade in each group of mice. Mean grades provide a measure of the ‘extent’ of AC lesion (representing relative volume) in each joint/compartment.

[5] = tested on: Str/ort mice; assay: Micro-CT of tibial trabecular and cortical bone in Str/ort mice; settings: 10-90% of total tibial length, vs vehicle
[6] = 50 mg/kg intraperitoneally, 18 weeks
[7] = 50 mg/kg intraperitoneally, 18 weeks, vs vehicle

Question: What does the source list for `COc1cc(/C=C/C(=O)/C=C/c2ccc(OC(=O)C[N+](C)(C)C)c(OC)c2)ccc1O.[Cl-]` [Hylin-betaine, 2-(4-((1E,4E)-5-(4-hydroxy-3-methoxyphenyl)-3-oxopenta-1,4-dien-1-yl)-2-methoxyphenoxy)-N,N,N-trimethyl-2-oxoethanaminium chloride]?
Answer: health status: weight, hunching, gait, activity, vocalisation and respiration scores, coat condition [1]: does not alter; mice that refused to run (drop-out) during the gait studies [2, 6]: no mice; percentage of drop-out regarding the total number of runs [2, 6]: 0%; distribution of gait data (runs) by treatment group ([2]; 2014 Dec. 23): 7; distribution of gait data (runs) by treatment group ([2]; 2015 Apr. 14): 7; distribution of gait data (runs) by treatment group ([2]; 2015 Feb. 18): 7; effect on all gait descriptors ([2]; any time point, compared with vehicle group): no significant effect; metaphyseal trabecular bone architecture and mass (tibial length, BV/TV, TV, BV, eccentricity, thickness, separation, number) [3, 7]: do not alter; cortical cross-sectional area (CSA) ([3]; apart from one distal region and a region close to tibio-fibula junction): do not significantly; mean cortical cross-sectional thickness ([3]; multiple regions from −15-60% tibial length, vs vehicle): significantly enhanced; second moment of area around minor axis (Imin) ([3]; vs vehicle, one region proximally): does not affect; tibial ellipticity ([3]; vs vehicle, region ˜40-50% along the tibia): modified by xantho-betaine but not hylin-betaine; second moment of area around major axis (Imax) ([3]; vs vehicle, ˜35-55% of tibial length): did not affect; effect on articular cartilage lesions / development of OA (overall) [4, 7]: prevents/improves articular cartilage lesions; also recorded: protective effect; Mean OA scores ([4]; tibial and femoral lateral knee joint compartments, vs vehicle): statistically significantly lower; maximum OA score ([4]; vs vehicle treated Str/ort mice): trend for lower maximum score; effect on cortical bone (overall) [5]: significantly alter
